A value given as a limit tells only on which side of the number the result lay.

Assay [1] has as its system interleukin 2 (IL-2) secretion of peripheral blood mononuclear cells (PBMC). The assay can be described thus: Antibody-induced (anti-CD3/anti-CD28) IL-2 secretion in PBMC, ELISA. The class given is cell-based. Conditions: human PBMC, anti-CD3/anti-CD28 stimulation; for IC50: 20 hours, read-out: IC50 (concentration for 50% inhibition of IL-2). Here is the method:
The extent to which test substance influence antibody-induced interleukin 2 (IL-2) secretion was investigated in the following test system. IL-2 represents a central cytokine which is produced and released by activated T cells. IL-2 synthesis in the T cells is regulated by a plurality of kinases. An inhibitory effect of substances on kinases leads inter alia to inhibition of IL-2 synthesis and inhibition of the T cell immune response. The cytokine determinations were carried out using an ELISA kit.
Peripheral blood mononuclear cells (PBMC) were isolated from heparinized human whole blood by gradient centrifugation using Histopaque 1077 (Sigma) at room temperature, and the erythrocytes were lyzed hypotonically and, after washing twice in PBS, taken up in cell culture medium (10% fetal inactivated calf serum in RPMI-1640+Glutamax-I [Gibco]).
The 96 well culture plates (Costar) were previously incubated with 100 μl of antibody solution in PBS 0.1 μg/ml in PBS [Gibco]) per well at 4° C. for 18 hours. The antibodies used were anti-CD3 and anti-CD28 monoclonal antibodies (PharMingen). After washing with PBS three times, the plates were charged with 200 μl of the cell suspension (40 000 cells/well). […]
The cultures were incubated in an incubator at 37° C. for 20 hours. After this incubation, the plates were briefly shaken and centrifuged, and […] of supernatant were removed, and the supernatants were then frozen at −20° C.
Interleukin-2 was determined using an ELISA kit (Bioscience), and the absorption of the color change was analyzed in a SpectraMax 340 PC (wavelength 450 nm). Active substances brought about a reduction in the absorption.
(ELISA stands for enzyme-linked immunosorbent assay.)

The target of assay [2] is PKC theta (Homo sapiens, UniProt Q04759). The assay can be described thus: Inhibition of PKC theta. The class given is biochemical.
Chain of PKC theta (Q04759 whole entry): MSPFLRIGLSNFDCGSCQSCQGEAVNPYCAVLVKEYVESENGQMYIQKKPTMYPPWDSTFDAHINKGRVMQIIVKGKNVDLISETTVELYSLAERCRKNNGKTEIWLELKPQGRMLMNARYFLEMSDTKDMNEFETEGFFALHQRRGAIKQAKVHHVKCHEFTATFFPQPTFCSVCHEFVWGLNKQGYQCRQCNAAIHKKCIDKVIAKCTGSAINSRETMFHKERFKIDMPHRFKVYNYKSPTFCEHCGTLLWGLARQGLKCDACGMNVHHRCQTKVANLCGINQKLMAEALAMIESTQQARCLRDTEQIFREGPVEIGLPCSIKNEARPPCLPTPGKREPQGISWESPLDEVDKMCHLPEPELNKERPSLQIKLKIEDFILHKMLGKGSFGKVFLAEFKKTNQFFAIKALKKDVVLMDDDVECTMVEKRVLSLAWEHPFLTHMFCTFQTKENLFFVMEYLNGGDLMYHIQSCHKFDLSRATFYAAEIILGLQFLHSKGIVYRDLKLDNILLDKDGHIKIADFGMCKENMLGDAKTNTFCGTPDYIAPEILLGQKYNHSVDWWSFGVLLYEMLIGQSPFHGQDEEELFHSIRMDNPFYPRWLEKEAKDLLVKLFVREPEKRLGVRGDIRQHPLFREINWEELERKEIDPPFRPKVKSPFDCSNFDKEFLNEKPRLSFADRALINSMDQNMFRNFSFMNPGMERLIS

For `c1ccc(-c2cnc3ccc(NCCCn4ccnc4)nn23)cc1` [KE1322-002-a], the IC50 was determined as 1.7 µM in assay [1] and 12.9 µM in assay [2].

`Cc1[nH]ncc1CCCNc1ccc2ncc(-c3ccccc3)n2n1` [KE1322-006-a]: the IC50 in assay [1] amounted to 2 µM; in assay [2], 11.3 µM.

On to `CCN(CC)CCCC(C)Nc1ccc2ncc(-c3ccccc3)n2n1` (stereo not drawn) [KE1322-010-a], for which the IC50 in assay [1] came out at 1.1 µM; in assay [2], 5.4 µM.

In the case of `CCN(CC)CCCNc1ccc2ncc(-c3ccccc3)n2n1` [KE1322-011-a], the IC50 in assay [1] was determined as 2.6 µM; in assay [2], 5.5 µM.

As to `Clc1cccc(-c2cnc3ccc(NCCCn4ccnc4)nn23)c1` [KE1322-014-a], the values for the IC50 in assay [1] and in assay [2] were 1.1 µM and 7.2 µM, respectively.

`CCN(CC)CCCC(C)Nc1ccc2ncc(-c3cccc(Cl)c3)n2n1` (stereo not drawn) [KE1322-022-a]: the IC50 in assay [1] was 0.29 µM; in assay [2], 0.22 µM.

As for `CCN(CC)CCCNc1ccc2ncc(-c3cccc(Cl)c3)n2n1` [KE1322-023-a], the IC50 in assay [1] is 0.21 µM; in assay [2] it was 0.25 µM.

Turning to `Clc1cccc(-c2cnc3ccc(NCCN4CCCC4)nn23)c1` [KE1322-024-a], the IC50 was 1 µM in assay [1] and 1.7 µM in assay [2].

For `Cn1cc(-c2cnc3ccc(NCC4CCCCC4)nn23)cn1` [KE1322-028-a], the IC50 in assay [2] turned out to be 7 µM.

`Cc1[nH]ncc1CCCNc1ccc2ncc(-c3cnn(C)c3)n2n1` [KE1322-030-a]: the values for the IC50 in assay [1] and in assay [2] were 0.7 µM and 7.2 µM, respectively.

For the molecule `Cc1[nH]ncc1CCCNc1ccc2ncc(-c3ccsc3)n2n1` [KE1322-042-a], the IC50 in assay [1] is 0.4 µM; in assay [2] it was 13 µM.

Consider `c1ccc(-c2cnc3ccc(NCCCN4CCCC4)nn23)cc1` [OP 3070], for which, in assay [1], the inhibition (as a rule, how much of the control response was suppressed) at 10 µM was more than 95% and the IC50 was found to be 1.4 µM. The IC50 in assay [2] turned out to be 6.1 µM.

In assay [1], `c1ccc(-c2cnc3ccc(NCCCN4CCOCC4)nn23)cc1` [OP 3071] displayed an inhibition at 10 µM of more than 95%. Also, the IC50 amounted to 2.5 µM in assay [1] and 17 µM in assay [2].

For the molecule `Clc1cccc(-c2cnc3ccc(NCCCN4CCCC4)nn23)c1` [OP 3073], the inhibition at 10 µM in assay [1] was more than 95%. The values for the IC50 in assay [1] and in assay [2] were 0.21 µM and 0.25 µM, respectively.

On to `Clc1cccc(-c2cnc3ccc(NCCCN4CCOCC4)nn23)c1` [OP 3074], for which, in assay [1], the inhibition at 10 µM was more than 95% and the IC50 was found to be 0.92 µM. The IC50 in assay [2] was 0.41 µM.

(Values after patent publication US7750000B2, “Substituted imidazo[1,2b]pyridazines as kinase inhibitors, their preparation and use as medicaments” (Bayer Schering Pharma AG, priority 2005, dated 2010).)
